A word on the IC50: it is the midpoint of a concentration-inhibition curve.

We go through four compounds from publication PMC3511013, “Dimerization of a cell-penetrating peptide leads to enhanced cellular uptake and drug delivery” (Beilstein Journal of Organic Chemistry, 2012).

Bridge positions count the residues as written; N and C are the ends. Ends that are not written are not given here. Peptide text beside a SMILES is read from it. I, II: the chains in the order shown. * marks the point of attachment. Chlorambucil = O=C(CCCc1ccc(N(CCCl)CCCl)cc1)*

The subject of data set [1] is human adipose tissue-derived stem cells (hADSC). Nature of the data set: Fluorescence microscopic uptake study in primary cells. The data set is classed as cell-based. Conditions: 1 h. On the procedure: For fluorescence microscopic uptake studies, cells were seeded in an 8-well ibidi plate and grown to 60–70% confluence. […] Ten minutes prior to the end of incubation, the nuclei were stained by addition of Hoechst33342 nuclear dye. Finally, the solution was removed, and the cells were treated with a 150 µM trypan blue solution for 0.5 min. After washing twice with PBS, images were taken by using a Zeiss Observer Z1 fluorescence microscope equipped with an ApoTome unit using a 63× oil immersion objective.

Data set [2] deals with HEK-293 cells. Nature of the data set: LDH release (membrane integrity) assay. Format: cell-based, human. Conditions: HEK-293, 1 h incubation, elevated concentrations, CytoTox-One, n = 2 in triplicate. On the procedure:
Experiments were carried out with n = 2 in triplicate.
(LDH leaks from cells whose membrane has failed.)

The test system of data set [3] is MCF-7 cells. Nature of the data set: Resazurin-based cell viability assay. Conditions: n = 2 in triplicate; for IC50: read-out: IC50 MCF-7, resazurin-based cell viability, 24 h incubation, in the presence of serum, nonlinear regression, ± spread. (Alamar Blue is a resazurin reagent that responds to reducing activity.)
Method: Cytotoxicity was determined by means of a resazurin-based cell-viability assay. Cells were seeded in a 96-well plate, grown to subconfluency and incubated with the substances at different concentrations for 24 h in the presence of serum under standard growth conditions. For the positive control, cells were treated with 70% ethanol for 10 min. After washing, the cell viability was determined relative to untreated cells by using the In Vitro Toxicology Assay Kit from Sigma-Aldrich according to the manufacturer’s protocol. Measurement was performed fluorimetrically at 595 nm (λex = 550 nm) on a Tecan SpectraFluor Plus plate reader. Untreated cells were set to 100%. IC50 values were calculated by using nonlinear regression (sigmoidal dose–response) with GraphPad Prism. Experiments were carried out with n = 2 in triplicate.
The subject of data set [4] is HT-29 cells. The data set can be described thus: LDH release (membrane integrity) assay. Conditions: HT-29, 1 h incubation.
Method: (§3) For the membrane leakage assay utilizing the Promega CytoTox-One kit, cells were seeded in a 96-well plate, grown to subconfluency, and incubated with the substances at different concentrations for 1 h in the presence of serum under standard growth conditions. Afterwards, the assay was conducted according to the manufacturer’s protocol including the provided cell lysis positive control. Measurement was performed fluorimetrically at 595 nm (λex = 550 nm) on a Tecan SpectraFluor Plus plate reader. The negative control served as blank value, and data were normalized to the positive control. Experiments were carried out with n = 2 in triplicate.
In data set [5] the test system is HT-29 cells. The data set can be described thus: Flow cytometric cellular uptake of carboxyfluorescein-labeled peptides. The data set is classed as cell-based, human. Conditions: 1 h, flow cytometry; for cellular uptake at 1 µM: HT-29, CF-labeled peptide 1 µM. Here is the method: (§1) For peptide-uptake studies by flow cytometry, cells were seeded in a 48-well plate and grown to 60–70% confluence. After incubation at 37 °C for 1 h with 5(6)-carboxyfluorescein-labeled peptides in OptiMEM, the cells were treated with 150 µM trypan blue for 0.5 min to quench extracellular fluorescence and washed twice with PBS, trypsinized and resuspended in standard cell-culture medium. Analyses were performed on a Partec CyFlow ML flow cytometer. Cellular autofluorescence was subtracted. The experiments were carried out with n (number of experiments) = 2 in duplicate.
In general terms: In flow cytometry, cells or beads pass a laser one at a time.

Data set [6] concerns MCF-7 cells. The description is as above. Format: cell-based, human. Conditions: 1 h, flow cytometry; for cellular uptake at 1 µM: MCF-7, CF-labeled peptide 1 µM. On the procedure: as §1
In data set [7] the test system is HEK-293 cells. The description is as above. Conditions: 1 h, flow cytometry; for cellular uptake at 1 µM: HEK-293, CF-labeled peptide 1 µM. The data set is classed as cell-based, human. Here is the method:
as §1

The subject of data set [8] is HEK-293 cells. Nature of the data set: Fluorescence microscopic uptake study. The data set is classed as cell-based, human. Conditions: unfixed HEK-293, 1 µM CF-labeled peptide, 30 min, fluorescence microscopy. On the procedure: For fluorescence microscopic uptake studies, cells were seeded in an 8-well ibidi plate and grown to 60–70% confluence. The cells were then incubated with CF-labeled peptides in OptiMEM for 30 min at 37 °C. Ten minutes prior to the end of incubation, the nuclei were stained by addition of Hoechst33342 nuclear dye. Finally, the solution was removed, and the cells were treated with a 150 µM trypan blue solution for 0.5 min. After washing twice with PBS, images were taken by using a Zeiss Observer Z1 fluorescence microscope equipped with an ApoTome unit using a 63× oil immersion objective.

Data set [9] concerns HT-29 cells. Nature of the data set: Resazurin-based cell viability assay. Conditions: n = 2 in triplicate; for IC50: resazurin-based cell viability, 24 h incubation, in the presence of serum, nonlinear regression, ± spread. On the set-up: species or system human. Here is the method:
(§2) Untreated cells were set to 100%. […] Experiments were carried out with n = 2 in triplicate.

The subject of data set [10] is HEK-293 cells. The data set can be described thus: Resazurin-based cell viability assay. Also on record: species or system human. Conditions: HEK-293, 24 h, concentrations up to 100 µM, n = 2 in triplicate. Here is the method: as §2
For data set [11], the system named is MCF-7 cells. Nature of the data set: LDH release (membrane integrity) assay.
Method: as §3
The test system of data set [12] is HT-29 cells. Conditions: cited from earlier work.
Method: (§4) The effect of the dimeric sC18 on the survival of HEK-293, HT-29 and MCF-7 cells was determined by means of a resazurin-based cell viability assay.
Data set [13] concerns MCF-7 cells. Conditions: cited from earlier work.
Method: as §4
The mark [14] stands for this setting: 25 µM CF-labeled peptide, fluorescence microscopy.

Consider `CC[C@H](C)[C@H](NC(=O)[C@H](CCCCN)NC(=O)[C@H](CC(N)=O)NC(=O)[C@H](CCCNC(=N)N)NC(=O)[C@H](Cc1ccccc1)NC(=O)[C@H](CCCCN)NC(=O)[C@H](CCCNC(=N)N)NC(=O)[C@H](CC(C)C)NC(=O)[C@H](CCCNC(=N)N)NC(=O)[C@H](CCCCNC(=O)[C@H](CCCCN)NC(=O)[C@H](CCC(=O)O)NC(=O)[C@H](CCCCN)NC(=O)[C@@H](NC(=O)[C@H](CCCCN)NC(=O)[C@H](CC(N)=O)NC(=O)[C@H](CCCNC(=N)N)NC(=O)[C@H](Cc1ccccc1)NC(=O)[C@H](CCCCN)NC(=O)[C@H](CCCNC(=N)N)NC(=O)[C@H](CC(C)C)NC(=O)[C@H](CCCNC(=N)N)NC(=O)[C@H](CCCCN)NC(=O)[C@H](CCCNC(=N)N)NC(=O)[C@H](CC(C)C)NC(=O)CN)[C@@H](C)CC)NC(=O)[C@H](CCCNC(=N)N)NC(=O)[C@H](CC(C)C)NC(=O)CN)C(=O)N[C@@H](CCCCN)C(=O)N[C@@H](CCC(=O)O)C(=O)N[C@@H](CCCCN)C(N)=O` [(sC18)2] (I: H-GLRKRLRKFRNKIKEK / II: H-GLRKRLRKFRNKIKEK-NH2; amide I:C-II:4), for which the “intracellular distribution in primary cells” value in data set [1] (setting [14]) is “evenly distributed throughout the cells”. Besides, in [1] (setting [14]), the “uptake into primary cells” value is reported as “bright intracellular fluorescence”. Moreover, in data set [1] (25 µM, microscopy), the “cytotoxicity judged by cell morphology” value was “no cytotoxicity”. Moreover, in the data set with HEK-293 cells [2], the “membrane leakage (LDH release)” value is reported as “only show a little membrane leakage”. Also, the cell viability entry was “steady decrease of cell viability” in the data set on MCF-7 cells [3] (MCF-7, 24 h, resazurin, different concentrations up to 100 µM (Figure 3)); “steady decrease of cell viability” in the data set with HT-29 cells [9] (HT-29, 24 h, resazurin, different concentrations up to 100 µM (Figure 3)); “remained unharmed” in the data set with HEK-293 cells [10]. Further, in the data set with HT-29 cells [4] (in the presence of serum, CytoTox-One, compared to MCF-7), the “extracellular LDH levels” value is “much smaller”. Also, the “amount taken up by HT-29 cells compared to the other cell lines” value in the data set on HT-29 cells [5] (CF-labeled peptide 10 µM, versus HEK-293 and MCF-7) is “less than half”. Moreover, the “cellular uptake at 1 µM” value in the data set on HT-29 cells [5] (37 °C, OptiMEM) is given as “significant uptake”; in the data set on MCF-7 cells [6] (37 °C, OptiMEM) it was “significant uptake”; in the data set on HEK-293 cells [7] (37 °C, OptiMEM), “significant uptake”. Further, the “increase of intracellular fluorescence versus sC18” value is reported as at least 10 fold with HT-29 cells [5] (HT-29, CF-labeled peptides, 37 °C, OptiMEM, trypan blue quench, n = 2 in duplicate); at least 10 fold in the data set with MCF-7 cells [6] (MCF-7, CF-labeled peptides, 37 °C, OptiMEM, trypan blue quench, n = 2 in duplicate); at least 10 fold in the data set on HEK-293 cells [7] (HEK-293, CF-labeled peptides, 37 °C, OptiMEM, trypan blue quench, n = 2 in duplicate). The “uptake rate at 1 µM compared to sC18 at 10 µM” value in the data set with MCF-7 cells [6] (MCF-7, CF-labeled, p ≤ 0.05) is given as “significantly higher”; with HEK-293 cells [7] (HEK-293, CF-labeled, p ≤ 0.05) it was “significantly higher”. For the same compound, the intracellular distribution pattern result in the data set with HEK-293 cells [8] is on record as “punctate uptake pattern”. Further, the “extracellular LDH (membrane destabilization)” value with MCF-7 cells [11] (MCF-7, 30 µM, 1 h incubation, in the presence of serum, CytoTox-One) is reported as “high levels of extracellular LDH”.

Take `CC[C@H](C)[C@H](NC(=O)[C@H](CCCCN)NC(=O)[C@H](CC(N)=O)NC(=O)[C@H](CCCNC(=N)N)NC(=O)[C@H](Cc1ccccc1)NC(=O)[C@H](CCCCN)NC(=O)[C@H](CCCNC(=N)N)NC(=O)[C@H](CC(C)C)NC(=O)[C@H](CCCNC(=N)N)NC(=O)[C@H](CCCCNC(=O)[C@H](CCCCN)NC(=O)[C@H](CCC(=O)O)NC(=O)[C@H](CCCCN)NC(=O)[C@@H](NC(=O)[C@H](CCCCN)NC(=O)[C@H](CC(N)=O)NC(=O)[C@H](CCCNC(=N)N)NC(=O)[C@H](Cc1ccccc1)NC(=O)[C@H](CCCCN)NC(=O)[C@H](CCCNC(=N)N)NC(=O)[C@H](CC(C)C)NC(=O)[C@H](CCCNC(=N)N)NC(=O)[C@H](CCCCN)NC(=O)[C@H](CCCNC(=N)N)NC(=O)[C@H](CC(C)C)NC(=O)CNC(=O)[C@H](CC(C)C)NC(=O)[C@H](Cc1ccccc1)NC(=O)CNC(=O)CCCc1ccc(N(CCCl)CCCl)cc1)[C@@H](C)CC)NC(=O)[C@H](CCCNC(=N)N)NC(=O)[C@H](CC(C)C)NC(=O)CNC(=O)[C@H](CC(C)C)NC(=O)[C@H](Cc1ccccc1)NC(=O)CNC(=O)CCCc1ccc(N(CCCl)CCCl)cc1)C(=O)N[C@@H](CCCCN)C(=O)N[C@@H](CCC(=O)O)C(=O)N[C@@H](CCCCN)C(N)=O` [compound 3] (I: Chlorambucil-GFLGLRKRLRKFRNKIKEK / II: Chlorambucil-GFLGLRKRLRKFRNKIKEK-NH2; amide I:C-II:7): the figures for the half-inhibitory concentration (IC50) in the data set with MCF-7 cells [3] and in the data set on HT-29 cells [9] were 8.9 ± 0.3 µM and 26 ± 1.2 µM, respectively. Moreover, the “LDH release compared to the cymantrene conjugates” value with HT-29 cells [4] (different concentrations (Figure 9)) was “equal amount of LDH release”; with MCF-7 cells [11] (MCF-7, 1 h incubation, different concentrations (Figure 9)), “equal amount of LDH release”.

In the case of “GLRKRLRKFRNKIKEK-NH2 [sC18, reference compound]”, in [1] (setting [14]), the “uptake into primary cells” value is “hardly any detectable uptake”. For the same compound, the “cell viability (previous studies)” value with HT-29 cells [12] and in the data set with MCF-7 cells [13] was “did not cause any loss of cell viability” throughout. The “cellular uptake at 1 µM” value with HT-29 cells [5] (37 °C, OptiMEM) was “almost failed to internalize”; with MCF-7 cells [6] (37 °C, OptiMEM), “almost failed to internalize”; in the data set with HEK-293 cells [7] (37 °C, OptiMEM), “almost failed to internalize”. In addition, the intracellular distribution pattern entry with HEK-293 cells [8] is reported as “punctate uptake pattern”.

With “I: KLAKLAKKLAKLAKGFLGLRKRLRKFRNKIKEK-NH2 / II: GLRKRLRKFRNKIKEK (amide I:21-II:C) [compound 4]”, the IC50 with MCF-7 cells [3] amounted to 3.6 ± 1.5 µM; with HT-29 cells [9], 14.3 ± 1.4 µM.
